Measurements: US20220331290A1, “PHARMACEUTICAL COMPOSITION FOR PREVENTING OR TREATING SARCOPENIA, CONTAINING UNNATURAL AMINO ACID” (MYO-TEC-SCI, priority 2019, published 2022)

Tests used:
myostatin promoter = test: Myostatin promoter activity, dual luciferase assay in C2C12 cells transfected with pGL4.15-MSTN; assay type: cell-based, mouse; settings: for myostatin promoter activity reduced by: 1 mM, C2C12 cells, medium without L-leucine, after one day; for promoter activity of myostatin: C2C12, medium without L-leucine
Protocol: After seeding 1×10^5 cells of mouse skeletal muscle cells C2C12 (ATCC, US) in a 12-well culture plate, on the next day, pGL4.15 empty vector and pGL4.15-MSTN vector containing myostatin promoter were transfected using Lipofectamine 2000 for 4 hours. After 4 hours, the complete medium (0.8 mM L-leucine) and the medium without L-leucine were treated with D-leucine or DL-leucine at concentrations of 0.001 mM, 0.01 mM, 0.1 mM, and 1 mM, respectively. After one day, a dual luciferase assay kit (Promega Inc.) was used to measure the promoter activity of myostatin.
In the same manner as the experiment to examine the inhibitory effect of a myostatin promoter activity by D-leucine or DL-leucine, D-alanine was treated at concentrations of 0.01 mM, 0.1 mM, 1 mM, and 10 mM in a medium without L-leucine, and a dual luciferase assay kit (Promega Inc.) was used to measure the promoter activity of myostatin.
In the same manner as in the experiment to examine the inhibitory effect of a myostatin promoter activity by D-leucine or DL-leucine, and D-alanine, D-proline was treated at concentrations of 0.001 mM, 0.01 mM, 0.1 mM, and 1 mM in a medium without L-leucine, and a dual luciferase assay kit (Promega Inc.) was used to measure the promoter activity of myostatin.
In the same manner as the myostatin promoter activity experimental method performed in Example 1 above, D-phenylalanine (0.001-0.1 mM), D-serine (0.001-0.1 mM), D-tyrosine (0.0001-0.01 mM), D-asparagine monohydrate (0.001-0.1 mM), D-aspartic acid (0.0001-0.01 mM), D-methionine (0.001-0.1 mM), D-cysteine hydrochloride monohydrate (0.001-0.1 mM), D-glutamic acid (0.0001-0.01 mM), D-arginine (0.001-0.1 mM), and D-tryptophan (0.001-0.1 mM) were treated, respectively. The myostatin mRNA expression level was identified using qRT-PCR, and the myostatin mRNA expression value was corrected using the expression value of beta-actin.

myostatin mRNA = test: Myostatin mRNA expression by qRT-PCR in C2C12 cells, corrected with beta-actin; assay type: cell-based, mouse; settings: C2C12, medium without L-leucine
Protocol: After seeding mouse skeletal muscle cells C2C12 (ATCC, US) 3×10^5 cells in a 6-well culture plate, on the next day, D-leucine was treated at concentrations of 0.01 mM, 0.1 mM, and 1 mM in a complete medium (0.8 mM L-leucine) and a medium without L-leucine. […]

For CC(C)CC(N)C(=O)O (racemic) [DL-leucine], the “myostatin promoter activity reduced by” value (myostatin promoter) was 41%.
For C[C@@H](N)C(=O)O [D-alanine], the “promoter activity of myostatin” value (myostatin promoter; D-alanine at 0.01 mM or more (0.01-10 mM tested), 12 hours (FIG. 6)) was “decreased” and the “mRNA expression level of myostatin” value (myostatin mRNA; D-alanine at 0.001 mM or more (0.001-1 mM tested), 12 hours (FIG. 7)) was “decreased”.
In the case of CC(C)C[C@@H](N)C(=O)O [D-leucine], the “myostatin promoter activity reduced by” value (myostatin promoter) is reported as 54% and the “expression of myostatin mRNA” value (myostatin mRNA; D-leucine 0.01, 0.1 and 1 mM, after one day) is reported as “decreased in a dose-dependent manner”.
In the case of O=C(O)[C@H]1CCCN1 [D-proline], the “promoter activity of myostatin” value (myostatin promoter; D-proline at 0.001 mM or more (0.001-1 mM tested), 24 hours (FIG. 8)) is reported as “decreased” and the “mRNA expression level of myostatin” value (myostatin mRNA; D-proline at 0.1 mM or more (0.1 and 1 mM tested), 24 hours (FIG. 9)) is reported as “decreased”.
